According to patent US9980924B2, “Topical pterostilbene compositions for use in treating UV-induced loss of barrier function in skin” (The Regents of the University of California, priority 2014, dated 2018):
“Also recorded” adds a separate entry of the source.

What was measured:
[1] = system: mouse skin; conditions: cited from earlier work
[2] = system: SKH-1 mice; assay: UV-B-induced skin damage and loss of barrier function (redness, TEWL) in SKH-1 mice, topical treatment; assay type: in vivo; conditions: topical 10 μmol/0.2 ml acetone/mouse 30 minutes before 180 mJ/cm^2 UV-B, every 2 days, 7 treatments; for prevention of UV-mediated transepidermal water loss (TEWL) / loss of barrier function: versus vehicle+UV-B
Source text: FIG. 2 depicts the manner in which pterostilbene prevents UV-B induced damage in the skin of SKH-1 mice. […] Photographs show representative mice after 4th treatment.
FIG. 3 depicts the manner in which pterostilbene prevents UV-mediated loss of skin barrier function in SKH-1 mice after exposure to UV-B radiation as described above for FIG. 2. TEWL measurements are expressed in g/m^2·h (and labeled ‘TD Water Loss’).
UV-B exposure. Mice were exposed to a single dose of 180mJ/cm^2 UVB radiation delivered via broadband UVB lamps (TL 40W/12 RS; Philips) emitting 290-350 nm light with a peak emission at 312 nm. The irradiance was measured using a thermopile sensor (818P-001-12; Newport Inc., Irvine, Calif.) and power meter (842-PE; Newport Inc.).
TEWL measurement. For transepidermal water loss (TEWL) a closed measurement chamber device (VapoMeter, Delfin Technologies Ltd, Kuopio, Finland) measuring flux density (gram/m^2·h) was used applying the sensor with even and constant pressure to dorsal skin by a single operator per manufacturer's instructions.
Statistics. All statistical analyses were performed using CRAN R, version 3.0.0, an open-source program of The R Foundation for Statistical Computing. Linear mixed-effect models were fit for each endpoint with a random effect for the mouse and fixed effects for UV exposure, treatment group, and their interaction.
Hairless SKH-1 mice were used to evaluate the effectiveness of pterostilbene at preventing UV-mediated damage in skin. The SKH-1 model is ideally suited for this purpose and is commonly used in preclinical studies and yielded valuable results. […] To ascertain if pterostilbene could also prevent those molecular alterations, we replicated these experiments. […] For all topical treatments 200 μl total volume was applied to the back skin of the mouse. For acetone group, 200 μl of acetone was applied. […] These mice were treated every 2 days for 7 total treatments. […] 24 hrs after last treatment, mice were euthanized, skin bi-fold measurements taken and back skins collected. […] This prevention of visual skin damage by pterostilbene correlated nicely with the prevention of loss of barrier function. […] Therefore pterostilbene prevented UV-induced loss of barrier function of the skin of SKH-1 mice.

[3] = cited from earlier work
[4] = system: human liver microsomes; assay: in vitro glucuronidation assay with pooled human liver microsomes; assay type: in vitro ADME; conditions: 100 μg pooled human liver microsomes (n=20), 500 μM compound
Experimental: Human liver microsomes metabolize resveratrol much faster than pterostilbene. […] HPLC chromatographs are presented depicting either parent compound or indicated glucuronide metabolite. Glucuronide metabolite peaks were confirmed by subsequent treatment with β-glucuronidase (data not shown). Detection of peaks by UV/VIS detector at 308 nm.
Specifically, in vitro glucuronidation assays were performed as previously described in one co-inventor's work (Dellinger, R. W., et al., “Glucuronidation of PhIP and N—OH-PhIP by UDP-glucuronosyltransferase 1A10,” Carcinogenesis (2007) 28: 2412-8; Dellinger, R. W., et al., “Importance of UDP-glucuronosyltransferase 1A10 (UGT1A10) in the detoxification of polycyclic aromatic hydrocarbons: decreased glucuronidative activity of the UGT1A10139Lys isoform,” Drug Metab. Dispos. (2006) 34: 943-9; Chen, G., Dellinger, R. W., et al., “Glucuronidation of tobacco-specific nitrosamines by UGT2B10,” Drug Metab. Dispos.

[5] = humans; cited from earlier work
[6] = system: mouse epidermis; conditions: cited from earlier work
[7] = rats; cited from earlier work
[8] = 125 mg orally twice a day; cited from earlier work

| SMILES | UV-B mediated cell damage (including hyperplasia) in mouse skin ([1]; given orally or applied topically) | UV-induced skin cancer progression ([1]; several mouse studies) | redness (sunburn) on back skin after UV-B [2] | prevention of UV-mediated transepidermal water loss (TEWL) / loss of barrier function [2] | prevention of UV-mediated transepidermal water loss (TEWL) / loss of barrier function ([2]; listed as Resveratrol) | half life t1/2 in blood [3] | conversion to glucuronides after 2 hours (in words) [4] | bioavailability (in words) [5] | COX-2 activation and TPA-induced tumor formation in mouse epidermis in vivo [6] | increased bioavailability in comparison to resveratrol [7] | overall blood pressure [8] | toxicity in patients [8] | fraction metabolized (glucuronidated) after 2 hours [4] |
| --- | --- | --- | --- | --- | --- | --- | --- | --- | --- | --- | --- | --- | --- |
| Oc1ccc(C=Cc2cc(O)cc(O)c2)cc1 [resveratrol] | prevents UV-B mediated cell damage (including hyperplasia) | block UV-induced skin cancer progression | able to limit the amount of redness observed on the back, it did not prevent it | did not prevent TEWL | ineffective | about 14 minutes | almost completely converted to its glucuronides | poor bioavailability | – | – | – | – | – |
| COc1cc(/C=C/c2ccc(O)cc2)cc(OC)c1 [pterostilbene, 3,5-dimethoxy-4′-hydroxy-trans-stilbene] | – | – | no redness was observed on any of the 5 mice | prevents TEWL after UV exposure; also recorded: prevented UV-mediated TEWL | – | about 105 minutes | – | – | prevent | 5 fold | reduction in overall blood pressure was observed | no toxicity reported | 20% |
